Measurements published in the NIST ThermoML archive (doi:10.1016/j.fluid.2014.07.021).
Numbers after ± are expanded uncertainties.

Conditions: Crystal; DTA

| Normal melting temperature [°C] | Structure (SMILES) |
| --- | --- |
| 38 ± 2 | CCCCCCCCCCCCCCO [1-tetradecanol] |
| 64 ± 2 | CCCCCCCCCCCCCCCCCCCCO [1-eicosanol] |
